Values quoted from earlier work as cited in publication PMC3157551 (Bioconjugate chemistry, 2011).

For “avidin: avidin (Pierce-Thermo), 128 amino acid biotin-binding protein”, the “dissociation half-time of biotin from avidin” value is listed as 89 days.
